Assay [1] is described as follows: DRUGMATRIX: beta-Lactamase enzyme inhibition (substrate: Nitrocefin). More on the design: species or system Bacillus cereus. The note with it: Not Active = under 50% inhibition at 10 µM.
Assay [2] has as its target T1, 3-hydroxy-3-methylglutaryl-coenzyme A reductase (Homo sapiens, UniProt P04035).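 Further: enzyme inhibition assay of HMG-CoA reductase using radiolabeled [14C]HMG-CoA as substrate; in other assays of this panel Not Active means under 50% inhibition at 10 µM.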
T1 sequence (P04035 whole entry): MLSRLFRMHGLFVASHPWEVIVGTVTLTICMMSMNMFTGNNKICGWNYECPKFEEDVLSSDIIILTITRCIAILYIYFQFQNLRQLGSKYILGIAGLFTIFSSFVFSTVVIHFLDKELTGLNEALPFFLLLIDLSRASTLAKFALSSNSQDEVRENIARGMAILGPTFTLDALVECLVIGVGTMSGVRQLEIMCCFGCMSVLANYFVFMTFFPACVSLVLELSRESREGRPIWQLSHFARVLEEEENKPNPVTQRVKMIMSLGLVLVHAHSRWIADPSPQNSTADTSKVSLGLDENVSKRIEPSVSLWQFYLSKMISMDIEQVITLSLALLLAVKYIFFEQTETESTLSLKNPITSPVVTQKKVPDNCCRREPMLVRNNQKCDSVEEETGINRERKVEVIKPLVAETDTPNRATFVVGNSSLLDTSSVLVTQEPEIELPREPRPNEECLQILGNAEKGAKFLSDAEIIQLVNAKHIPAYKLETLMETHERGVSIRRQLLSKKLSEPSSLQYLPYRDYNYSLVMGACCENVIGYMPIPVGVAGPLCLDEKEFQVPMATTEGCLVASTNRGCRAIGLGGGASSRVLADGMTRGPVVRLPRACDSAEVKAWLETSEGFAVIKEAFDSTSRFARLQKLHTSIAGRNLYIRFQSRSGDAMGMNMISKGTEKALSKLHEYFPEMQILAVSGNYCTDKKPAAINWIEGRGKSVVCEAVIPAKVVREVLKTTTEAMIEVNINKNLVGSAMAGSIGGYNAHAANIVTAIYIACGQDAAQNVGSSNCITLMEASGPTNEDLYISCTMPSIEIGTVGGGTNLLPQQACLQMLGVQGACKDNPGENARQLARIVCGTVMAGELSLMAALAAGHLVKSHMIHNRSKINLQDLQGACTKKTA
Also noted: species or system Escherichia coli.

Assay [3] in a line: DRUGMATRIX: GABAA, Flunitrazepam, Central radioligand binding (ligand: [3H] Flunitrazepam). The assay is classed as cell membranes, Rattus norvegicus, Wistar, Brain, Membrane. The following applies: Not Active = under 50% inhibition at 10 µM.
A further assay deals with T2, Interstitial collagenase (Homo sapiens, UniProt P03956).
T2 sequence (P03956 whole entry): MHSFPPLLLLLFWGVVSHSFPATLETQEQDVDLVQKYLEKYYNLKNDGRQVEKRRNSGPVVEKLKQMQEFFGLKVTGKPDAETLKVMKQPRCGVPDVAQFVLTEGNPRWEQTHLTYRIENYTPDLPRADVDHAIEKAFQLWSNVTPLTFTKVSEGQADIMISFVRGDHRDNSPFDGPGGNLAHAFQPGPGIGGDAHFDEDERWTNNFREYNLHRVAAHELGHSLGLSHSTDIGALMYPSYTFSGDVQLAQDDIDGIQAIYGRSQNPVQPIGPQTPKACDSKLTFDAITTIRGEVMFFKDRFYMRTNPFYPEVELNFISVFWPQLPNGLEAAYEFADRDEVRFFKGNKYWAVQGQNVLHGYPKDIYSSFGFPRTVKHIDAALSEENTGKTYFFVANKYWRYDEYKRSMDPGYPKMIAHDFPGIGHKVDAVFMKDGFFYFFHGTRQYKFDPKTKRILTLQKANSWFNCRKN
Description: biochemical. The assay is classed as tissue-based, Rheumatoid synovial fibroblasts.

For assay [4], the target named is T3, 5-hydroxytryptamine receptor 2C (Homo sapiens, UniProt P28335).
T3 sequence (P28335 whole entry): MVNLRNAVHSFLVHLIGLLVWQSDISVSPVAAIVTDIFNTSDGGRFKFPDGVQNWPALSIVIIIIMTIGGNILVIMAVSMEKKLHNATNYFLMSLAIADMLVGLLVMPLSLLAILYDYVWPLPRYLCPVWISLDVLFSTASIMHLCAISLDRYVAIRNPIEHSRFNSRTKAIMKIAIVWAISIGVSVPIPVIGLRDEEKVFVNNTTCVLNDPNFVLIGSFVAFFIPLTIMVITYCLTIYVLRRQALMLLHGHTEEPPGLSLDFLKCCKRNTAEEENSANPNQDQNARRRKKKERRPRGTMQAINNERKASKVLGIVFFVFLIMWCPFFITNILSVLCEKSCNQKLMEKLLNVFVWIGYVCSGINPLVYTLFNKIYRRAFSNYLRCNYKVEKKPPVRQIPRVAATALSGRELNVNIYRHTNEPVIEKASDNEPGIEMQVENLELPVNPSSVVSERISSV
Description: DRUGMATRIX: Serotonin (5-Hydroxytryptamine) 5-HT2C radioligand binding (ligand: [3H] Mesulergine). It is filed as cell membranes, CHO-K1, Membrane. The following applies: Not Active = under 50% inhibition at 10 µM; for IC50: cho-k1.

Assay [5] has as its target T4, C-C chemokine receptor type 4 (Homo sapiens, UniProt P51679). Further: in other assays of this panel Not Active means under 50% inhibition at 10 µM.
T4 sequence (P51679 whole entry): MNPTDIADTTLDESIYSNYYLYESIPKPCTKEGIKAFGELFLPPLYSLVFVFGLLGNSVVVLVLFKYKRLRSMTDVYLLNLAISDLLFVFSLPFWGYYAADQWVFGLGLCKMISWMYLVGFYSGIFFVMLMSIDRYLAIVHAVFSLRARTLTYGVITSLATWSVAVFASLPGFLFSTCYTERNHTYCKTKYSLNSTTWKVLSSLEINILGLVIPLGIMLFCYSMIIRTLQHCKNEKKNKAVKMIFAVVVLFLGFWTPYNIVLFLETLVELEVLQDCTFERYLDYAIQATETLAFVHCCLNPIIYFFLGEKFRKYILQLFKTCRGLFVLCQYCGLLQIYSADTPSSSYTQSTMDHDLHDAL
It is filed as cell membranes, Membrane. The note with it: chem-1.

Assay [6] in a line: DRUGMATRIX: Glutamate, AMPA radioligand binding (ligand: [3H] AMPA). The assay is classed as cell membranes, Rattus norvegicus, Wistar, Cerebral cortex, Membrane. The note with it: Not Active = under 50% inhibition at 10 µM.

pIC50, pKi: −log10 of the molar value.

On to `N[C@@H](Cn1ccc(=O)c(O)c1)C(=O)O` [L-MIMOSINE], for which the IC50 result (in assay [1]; in assay [2]; in assay [3]; against Interstitial collagenase; in assay [4]; in assay [5]) was “Not Active” each time. Besides, in assay [6], the IC50 entry is “Not Active”. Besides, the Ki entry in assay [1], in assay [3] and in assay [6] was “Not Active” each time.

In the case of `C[N+](C)(C)C[C@H](O)CC(=O)[O-]` [LEVOCARNITINE], the IC50 entry (in assay [1]; in assay [2]; in assay [3]; at Interstitial collagenase; in assay [4]; in assay [5]) was “Not Active” throughout. In addition, in assay [6], the IC50 entry is recorded as “Not Active”. Moreover, the Ki entry in assay [1], in assay [3] and in assay [6] was “Not Active” in each case.

Regarding `C[C@H]1COc2c(N3CCN(C)CC3)c(F)cc3c(=O)c(C(=O)O)cn1c23.C[C@H]1COc2c(N3CCN(C)CC3)c(F)cc3c(=O)c(C(=O)O)cn1c23.O` [LEVOFLOXACIN], the IC50 result (in assay [1]; in assay [2]; in assay [3]; against Interstitial collagenase; in assay [4]; in assay [5]) was “Not Active” in each case. Also, the IC50 result in assay [6] is on record as “Not Active”. Moreover, the Ki entry in assay [1], in assay [3] and in assay [6] was “Not Active” each time.

`CCn1cc(C(=O)O)c(=O)c2cc(F)c(N3CCNC(C)C3)c(F)c21` (stereo unspecified) [LOMEFLOXACIN]: the IC50 result (in assay [1]; in assay [2]; in assay [3]; at Interstitial collagenase; in assay [4]; in assay [5]) was “Not Active” each time. Also, the IC50 result in assay [6] is listed as “Not Active”. Besides, the Ki result in assay [1], in assay [3] and in assay [6] was “Not Active” in each case.

For the molecule `CN1CCCC(CN2c3ccccc3Sc3ccccc32)C1` (stereo unspecified) [MEPAZINE], the IC50 result (in assay [1]; in assay [2]; in assay [3]; against Interstitial collagenase; in assay [5]; in assay [6]) was “Not Active” in each case. In addition, the Ki result in assay [1], in assay [3] and in assay [6] was “Not Active” throughout. In assay [4] (read-out: IC50), the pIC50 is 6.31. Besides, in assay [4] (read-out: Ki), the pKi is 6.59.

With `Cc1cccc(C)c1NC(=O)C1CCCCN1C` (stereo unspecified) [MEPIVACAINE], the IC50 entry (in assay [1]; in assay [2]; in assay [3]; against Interstitial collagenase; in assay [4]; in assay [5]) was “Not Active” throughout. The IC50 entry in assay [6] is “Not Active”. The Ki result in assay [1], in assay [3] and in assay [6] was “Not Active” in each case.

For `CN(C)C(=N)NC(=N)N` [METFORMIN], the IC50 entry (in assay [1]; in assay [2]; in assay [3]; on Interstitial collagenase; in assay [4]; in assay [5]) was “Not Active” each time. For the same molecule, in assay [6], the IC50 entry was “Not Active”. Moreover, the Ki result in assay [1], in assay [3] and in assay [6] was “Not Active” throughout.

As for `CC(C)(C)NCC(O)COc1cccc2c1CC(O)C(O)C2` (stereo unspecified) [NADOLOL], the IC50 entry (in assay [1]; in assay [2]; in assay [3]; against Interstitial collagenase; in assay [4]; in assay [5]) was “Not Active” throughout. Besides, the IC50 result in assay [6] is “Not Active”. The Ki result in assay [1], in assay [3] and in assay [6] was “Not Active” each time.

Turning to `C[C@]12CC[C@H]3[C@@H](CCC4=CC(=O)CC[C@@H]43)[C@@H]1CC[C@@H]2O` [NANDROLONE], the IC50 result (in assay [1]; in assay [2]; in assay [3]; against Interstitial collagenase; in assay [4]; in assay [5]) was “Not Active” throughout. Further, the IC50 result in assay [6] is “Not Active”. Besides, the Ki entry in assay [1], in assay [3] and in assay [6] was “Not Active” throughout.

Take `C[C@@H]1C/C=C/C=C/C=C/C=C/[C@H](O[C@@H]2O[C@H](C)[C@@H](O)[C@H](N)[C@@H]2O)C[C@@H]2O[C@](O)(C[C@@H](O)C[C@H]3O[C@@H]3/C=C/C(=O)O1)C[C@H](O)[C@H]2C(=O)O` [NATAMYCIN]: the IC50 entry (in assay [1]; in assay [2]; in assay [3]; against Interstitial collagenase; in assay [4]; in assay [5]) was “Not Active” each time. In addition, the IC50 entry in assay [6] is recorded as “Not Active”. Moreover, the Ki entry in assay [1], in assay [3] and in assay [6] was “Not Active” each time.

Take `CN(C)C(=O)Oc1cccc([N+](C)(C)C)c1.[Br-]` [NEOSTIGMINE BROMIDE]: the IC50 result (in assay [1]; in assay [2]; in assay [3]; on Interstitial collagenase; in assay [4]; in assay [5]) was “Not Active” throughout. Also, in assay [6], the IC50 entry was “Not Active”. Moreover, the Ki entry in assay [1], in assay [3] and in assay [6] was “Not Active” in each case.

With `NC(=O)c1cccnc1` [NIACINAMIDE], the IC50 entry (in assay [1]; in assay [2]; in assay [3]; at Interstitial collagenase; in assay [4]; in assay [5]) was “Not Active” each time. Also, the IC50 result in assay [6] was “Not Active”. Also, the Ki result in assay [1], in assay [3] and in assay [6] was “Not Active” throughout.

As to `CS(=O)(=O)Nc1ccc([N+](=O)[O-])cc1Oc1ccccc1` [NIMESULIDE], the IC50 result in assay [1], in assay [2], in assay [3], in assay [4], in assay [5] and in assay [6] was “Not Active” each time. Moreover, the Ki entry in assay [1], in assay [3] and in assay [6] was “Not Active” throughout. In addition, the pIC50 at Interstitial collagenase (read-out: IC50) was 4.63.

A word on the pIC50: it is the IC50 on a negative log10 scale, so that one unit is a factor of ten. In general, pKi refers to −log10 of the Ki, conventionally taken in molar units.

The values above are taken from ChEMBL document CHEMBL1909046, “DrugMatrix in vitro pharmacology data”.
